This assay has as its target T1, human recombinant 5-lipoxygenase (Homo sapiens, UniProt P09917).
T1 construct: purchased Cayman 60402
T1 sequence (P09917 1-674): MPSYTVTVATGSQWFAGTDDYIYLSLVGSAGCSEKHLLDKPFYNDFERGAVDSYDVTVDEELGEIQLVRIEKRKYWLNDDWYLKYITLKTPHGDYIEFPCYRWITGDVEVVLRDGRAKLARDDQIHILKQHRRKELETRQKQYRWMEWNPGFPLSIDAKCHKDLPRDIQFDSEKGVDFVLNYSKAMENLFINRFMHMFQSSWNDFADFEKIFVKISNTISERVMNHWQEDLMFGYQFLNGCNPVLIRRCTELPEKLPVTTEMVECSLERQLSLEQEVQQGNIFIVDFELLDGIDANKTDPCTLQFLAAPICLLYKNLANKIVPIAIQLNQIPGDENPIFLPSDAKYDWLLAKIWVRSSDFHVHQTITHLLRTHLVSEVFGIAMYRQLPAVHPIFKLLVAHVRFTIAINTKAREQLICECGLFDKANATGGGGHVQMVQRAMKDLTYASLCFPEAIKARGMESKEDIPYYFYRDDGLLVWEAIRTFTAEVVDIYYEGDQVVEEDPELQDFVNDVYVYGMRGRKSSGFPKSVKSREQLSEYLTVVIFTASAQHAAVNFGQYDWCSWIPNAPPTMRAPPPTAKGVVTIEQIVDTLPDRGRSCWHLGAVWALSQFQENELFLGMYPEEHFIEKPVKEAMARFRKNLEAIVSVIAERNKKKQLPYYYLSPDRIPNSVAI
Nature of the assay: 5-Lipoxygenase enzyme assay. The following applies: 70 μM arachidonic acid, pH 7.4, 10 minute incubation; read-out: IC50, inhibition of 5-Lipoxygenase. The class given is biochemical.

This passage reports IC50 results from US8791155B2, “Chroman derivatives” (Edison Pharmaceuticals, Inc., priority 2003, dated 2014).

In the case of `C=CCSCc1c(O)c(C)c(C)c2c1CCC(C)(C)O2` [5-Allylsulfanylmethyl-2,2,7,8-tetramethyl-chroman-6-ol], the IC50 (in general, the concentration that gives 50% inhibition) was under 1000 nM.

Turning to `Cc1c(C)c2c(c(C)c1O)CCC(C)(C=C(Br)Br)O2` (centres unmarked) [2-(2,2-Dibromo-vinyl)-2,5,7,8-tetramethyl-chroman-6-ol], the IC50 is under 1000 nM.
